Results as given in the supplement of paper PMC11208160.

assay: recombinant UMI read abundance after kanamycin selection (control-corrected) (log10(CPM+1)); higher = more efficient recombination; extreme values may be limits of the assay; sequences stand for … in AGTGCAGAGAAAATCGGCCAGTTTTCTCTGCCTGCAGTCCGCATGCCGTGGGACCCCTTGGGTTCTAACCTGTTGCCTAGATTTATGCAGCGGACTGCCTTTCTCCCAAAGTGATAAACCGG…AGGTTGGTTTCACT; site = the 11-nt donor
Method in brief: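 Two replicates each of selected and unselected plating were used in this pooled Escherichia coli screen of donor and donor-binding-loop pairs for the IS621 bridge recombinase. Selection was with IPTG (0.07 mM) and kanamycin. Counts of recombinant UMIs, amplified across the donor–target junction, were converted to CPM, averaged, scaled by control-derived factors and reported as log10(CPM+1).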
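Note: IS621 bridge recombinase in Escherichia coli cells against a fixed T5 target plasmid.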

Sequence | recombinant UMI read abundance (log10)
TGTTCACCATGGACCGGTTTTCCCGGTAATCCGTATTTGAC (site TGTTCACCTGT) | 0
TGTTCCCCATGGACCGGTTTTCCCGGTAATCCGTATTTGTG (site TGTTCCCCTAA) | 0.00613
TGTTCCCCATGGACCGGTTTTCCCGGTAATCCGTATTTGTG (site TGTTCCCCTCA) | 0.0316
TGTTCCCCATGGACCGGTTTTCCCGGTAATCCGTATTTGTG (site TGTTCCCCTGA) | 0
TGTTCCCCATGGACCGGTTTTCCCGGTAATCCGTATTTGTG (site TGTTCCCCTTA) | 0
TGTTCCCCATGGACCGGTTTTCCCGGTAATCCGTATTTGTT (site TGTTCCCCTAA) | 0.014
TGTTCCCCATGGACCGGTTTTCCCGGTAATCCGTATTTGTT (site TGTTCCCCTCA) | 0.0148
TGTTCCCCATGGACCGGTTTTCCCGGTAATCCGTATTTGTT (site TGTTCCCCTGA) | 0
TGTTCCCCATGGACCGGTTTTCCCGGTAATCCGTATTTGTT (site TGTTCCCCTTA) | 0.0133
TGTTCCGCATGGACCGGTTTTCCCGGTAATCCGTATTTGTA (site TGTTCCACTTA) | 0.00713
TGTTCCGCATGGACCGGTTTTCCCGGTAATCCGTATTTGTA (site TGTTCCCCTTA) | 0.0203
TGTTCCGCATGGACCGGTTTTCCCGGTAATCCGTATTTGTA (site TGTTCCGCTTA) | 0.0982
TGTTCCGCATGGACCGGTTTTCCCGGTAATCCGTATTTGTA (site TGTTCCTCTTA) | 0
TGTTCTCCATGGACCGGTTTTCCCGGTAATCCGTATTTGTA (site TGTTCACCTTA) | 0.0104
TGTTCTCCATGGACCGGTTTTCCCGGTAATCCGTATTTGTA (site TGTTCCCCTTA) | 0.00777
TGTTCTCCATGGACCGGTTTTCCCGGTAATCCGTATTTGTA (site TGTTCGCCTTA) | 0.0191
TGTTCTCCATGGACCGGTTTTCCCGGTAATCCGTATTTGTA (site TGTTCTCCTTA) | 0.679
TGTTGGACATGGACCGGTTTTCCCGGTAATCCGTATTTGTG (site TGTTGGACTCA) | 0.117
TGTTGTGCATGGACCGGTTTTCCCGGTAATCCGTATTTGCG (site TGTTGTGCTCG) | 0.684
TTAAGAGCATGGACCGGTTTTCCCGGTAATCCGTATTTGCA (site TTAAGAGCTTG) | 2.63
TTAAGGCCATGGACCGGTTTTCCCGGTAATCCGTATTTGAC (site ATAAGGCCTGT) | 0
TTAAGGCCATGGACCGGTTTTCCCGGTAATCCGTATTTGAC (site CTAAGGCCTGT) | 0
TTAAGGCCATGGACCGGTTTTCCCGGTAATCCGTATTTGAC (site GTAAGGCCTGT) | 0
TTAAGGCCATGGACCGGTTTTCCCGGTAATCCGTATTTGAC (site TTAAGGCCTGT) | 0
TTAAGTCCATGGACCGGTTTTCCCGGTAATCCGTATTTGTA (site TAAAGTCCTTA) | 0.00903
TTAAGTCCATGGACCGGTTTTCCCGGTAATCCGTATTTGTA (site TCAAGTCCTTA) | 0.361

Sequence | recombinant UMI read abundance (log10)
TTAAGTCCATGGACCGGTTTTCCCGGTAATCCGTATTTGTA (site TGAAGTCCTTA) | 0.0153
TTAAGTCCATGGACCGGTTTTCCCGGTAATCCGTATTTGTA (site TTAAGTCCTTA) | 1.44
TTAATAGCATGGACCGGTTTTCCCGGTAATCCGTATTTGAT (site TTAATAGCTAT) | 1.76
TTAATTCCATGGACCGGTTTTCCCGGTAATCCGTATTTGTG (site TTAATTCCTCA) | 0.4
TTACAACCATGGACCGGTTTTCCCGGTAATCCGTATTTGCA (site TTACAACCTTG) | 0
TTACACTCATGGACCGGTTTTCCCGGTAATCCGTATTTGAT (site TTACACTCTAT) | 2.95
TTACAGACATGGACCGGTTTTCCCGGTAATCCGTATTTGAG (site TTACAGACTCT) | 1.21
TTACGAACATGGACCGGTTTTCCCGGTAATCCGTATTTGAC (site TTACGAACTGT) | 2.28
TTACTAACATGGACCGGTTTTCCCGGTAATCCGTATTTGGA (site ATACTAACTTC) | 0.0425
TTACTAACATGGACCGGTTTTCCCGGTAATCCGTATTTGGA (site CTACTAACTTC) | 0.457
TTACTAACATGGACCGGTTTTCCCGGTAATCCGTATTTGGA (site GTACTAACTTC) | 0.288
TTACTAACATGGACCGGTTTTCCCGGTAATCCGTATTTGGA (site TTACTAACTTC) | 0.363
TTAGAATCATGGACCGGTTTTCCCGGTAATCCGTATTTGAC (site CTAGTATCTGT) | 0
TTAGAATCATGGACCGGTTTTCCCGGTAATCCGTATTTGAC (site TTAGAATCTGT) | 1.48
TTAGCTACATGGACCGGTTTTCCCGGTAATCCGTATTTGTG (site TTAGCTACTCA) | 0.319
TTAGCTACATGGACCGGTTTTCCCGGTAATCCGTATTTGTG (site TTAGCTCCTCA) | 0.00713
TTAGCTACATGGACCGGTTTTCCCGGTAATCCGTATTTGTG (site TTAGCTGCTCA) | 0.0109
TTAGCTACATGGACCGGTTTTCCCGGTAATCCGTATTTGTG (site TTAGCTTCTCA) | 0.0149
TTAGCTGCATGGACCGGTTTTCCCGGTAATCCGTATTTGTC (site TTAGCTGCTAA) | 0.00712
TTAGCTGCATGGACCGGTTTTCCCGGTAATCCGTATTTGTC (site TTAGCTGCTCA) | 0.00796
TTAGCTGCATGGACCGGTTTTCCCGGTAATCCGTATTTGTC (site TTAGCTGCTGA) | 2.26
TTAGCTGCATGGACCGGTTTTCCCGGTAATCCGTATTTGTC (site TTAGCTGCTTA) | 0.15
TTAGTATCATGGACCGGTTTTCCCGGTAATCCGTATTTGAC (site ATAGTATCTGT) | 2.12
TTAGTATCATGGACCGGTTTTCCCGGTAATCCGTATTTGAC (site CTAGTATCTGT) | 2.18
TTAGTATCATGGACCGGTTTTCCCGGTAATCCGTATTTGAC (site GTAGTATCTGT) | 0.348
TTAGTATCATGGACCGGTTTTCCCGGTAATCCGTATTTGAC (site TTAGTATCTGT) | 2.84
